Measured values published in patent US20190282563A1, “Selective c-FLIP Inhibitors as Anticancer Agents” (Centre National de la Recherche Scientifique, priority 2016, published 2019).
Entries after “also recorded” stand apart in the source; their conditions may differ.

Columns and labels:
H1703-FLIP(L) cells [1] = test: Annexin V-PE flow cytometry apoptosis test, H1703-FLIP(L) cells (TRAIL alone, molecule alone or combination); assay type: cell-based, Human; settings: 18 hours; for sensitization to TRAIL-induced apoptosis (percentage of apoptosis, annexin V): molecule at its most suitable concentration combined with TRAIL 100 ng/mL
Description: (§1) Cell Culture. H1703 (Human non-small lung cancer cell line) cells were grown in RPMI 1640 (LONZA) culture media supplemented with 10% fetal bovine serum and puromycine antibiotic (2 μg/ml) from Sigma-Aldrich. The cells were kept in a humidified atmosphere in an incubator at 37° C. and 5% CO2. H1703 cells were a kind gift from O. Micheau (INSERM, Dijon, France).
(§2) Flow Cytometry Analysis. The apoptotic cell death was confirmed by flow cytometry (cytoFLEX, Backman Coulter). After treatment of cells with TRAIL alone, c-FLIP inhibitor alone, or co-admninistration TRAIL/c-FLIP inhibitor, the cells were collected, washed and re-suspended in 1× Annexin binding buffer. Annexin-V-PE was added to cells, and left 20 minutes at room temperature in the dark. Flow cytometric analysis was carried out in the final step.
(§3) Sensitivity of the H1703 cells to TRAIL: The first goal was to verify that the H1703 cells are sensitive to TRAIL. To do so, the cells were treated with TRAIL at a concentration of 100 ng/mL for 18 hours and then the cells were washed and incubated with Annexin V-PE to evaluate the apoptosis level using flow cytometry. […] So, the Inventors applied a range of concentrations for each molecule to determine the appropriate dose that has no toxic effect on the cells when administered alone.
Combination Treatment of TRAIL with each one of the 9 Identified Molecules: Following the identification of the best concentration for each compound, HE1703 cells were treated with TRAIL (100 ng/mL) alone or with one of the 9 identified molecules alone or with a combination of TRAIL and one of the 9 identified molecules for 18 hours. The percentage of apoptosis was measured by flow cytometry using an annexin V test, as described above. The results obtained are presented on FIGS. 2(A, B and C).

H1703-Mock cells [2] = test: Cleavage of caspase-8, caspase-3 and PARP in H1703-mock cells; assay type: cell-based, Human
Description: (§4) Reactivation of the Apoptotic Pathway by c-FLIP inhibitors combined with TRAIL: Cleavage of caspases is a marker of apoptosis pathway initiation. Thus, the present Inventors have studied the cleavage of caspase-8, of caspase-3 and of PARP (a caspase-3 substrate, which undergoes cleavage during apoptosis) in H1703-mock cells and in H1703-FLIP(L) cells, in the presence of TRAIL alone, in the presence of a c-FLIP inhibitor (molecules (1), (3), (4) and (9)), and of a combination of TRAIL and one of the c-FLIP inhibitors. The results obtained are presented on FIG. 4(A)-(B). […] However, no cleavage was observed when H1703-MOCK cells were treated with a c-FLIP inhibitor alone.

H1703-FLIP(L) cells [3] = test: Cleavage of caspase-8, caspase-3 and PARP in H1703-FLIP(L) cells; assay type: cell-based, Human; settings: H1703 cells overexpressing FLIP
Description: as §4

cFLIP/FADD interaction = target: T1, cFLIP/FADD interaction (Homo sapiens, UniProt O15519); test: Pull down assay of FADD/c-FLIP interaction (MBP-trap column, Western blot); assay type: binding; settings: c-FLIP(s) and FADD incubated 18 hours with molecule at different concentrations
T1 construct: made in house; host or cells: E. coli: Rosetta (pET24b, c-FLIP(s)) and DH5α (pMALC2, FADD)
Description: Transformation of Competent Bacteria. FLIP (s) and FADD genes were previously cloned and inserted in their respective plasmids pET24b and pMALC2, and provided as a kind gift from Pr. Richard Daniellou (ICOA, Orléans, France). Pet24b and Pmalc2 plasmids were mixed with their corresponding competent bacterial cells, Rosetta and DH5α cells respectively, and left on ice for 20 minutes. Heat-shocking steps were performed before adding LB medium and leaving cells to grow on 37° C. for 1 hour and then cells were spread on LB plates with appropriate antibiotics and incubated at 37° C. overnight.
Production of c-FLIP (s) and FADD proteins. Transformed competent cells were cultured in large amounts of LB growth at 37° C. and the expression of each protein was stimulated using 1M IPTG (Isopropyl β-D-1-thiogalactopyranoside) and cells were left to grow for 18 hours at 30° C. Cells were collected, centrifuged and resuspended in Tris/NaCl buffer (Tris 50 mM, NaCl 100 mM, pH 8.0) after which they were centrifuged at 6000 g, for 10 minutes at 4° C. Supernatant was removed and bacterial pellets were used for cell lysis and protein purification on Ni-NTA column and MBP-trap column for cFLIP(s) and FADD purification, respectively. The FLIP(s) is a His-tagged protein, and FADD is a MBP-tagged protein. The purified proteins were incubated with each molecule for 18 hours at +4° C. and then, the samples were passed again on MBP-trap columns.
Western Blot Analysis. The samples, purified and obtained after FADD/FLIP/compounds incubation, were run on 4-12% Bis-Tris polyacrylamide gels to evaluate the presence of FLIP and FADD bands.
Once purified, c-FLIP(s) and FADD were incubated for 18 hours with each one of the nine c-FLIP inhibitors at different concentrations. The samples were then passed on a MBP-trap column, which binds FADD (MBP-tagged protein). If cFLIP is still bound to FADD, then it is captured with FADD on the MBP column. Samples were then evaluated using a Western blot analysis by monitoring the disappearance of the c-FLIP band with increasing concentration of the c-FLIP inhibitor. Disappearance of the c-FLIP band in Western Blot corresponds to FADD-c-FLIP interaction inhibition.

H1703-Mock cells [4] = test: Annexin V-PE flow cytometry apoptosis test, H1703-Mock cells; assay type: cell-based, Human; settings: TRAIL 100 ng/mL, 18 hours
Description: as §1, §2, §3

[5] = TRAIL combined with c-FLIP inhibitor
[6] = combination of TRAIL and c-FLIP inhibitor

| Molecule | sensitization to TRAIL-induced apoptosis (percentage of apoptosis, annexin V) (H1703-FLIP(L) cells [1]) | cleavage of caspase-8, caspase-3 and PARP (H1703-Mock cells [2]; [5]) | cleavage of caspase-8, caspase-3 and PARP (H1703-Mock cells [2]; c-FLIP inhibitor alone) | cleavage of caspase-8, caspase-3 and PARP (H1703-FLIP(L) cells [3]; c-FLIP inhibitor alone) | cleavage of caspase-8, caspase-3 and PARP (H1703-FLIP(L) cells [3]; [6]) | inhibition of the interaction between FADD and c-FLIP (disappearance of the c-FLIP band) (cFLIP/FADD interaction) | effect of TRAIL alone on apoptosis (H1703-FLIP(L) cells [1]; TRAIL 100 ng/mL, H1703-FLIP(L) cells overexpressing c-FLIP) | cleavage of caspase-8, caspase-3 and PARP (H1703-Mock cells [2]; TRAIL alone) | level of apoptosis (H1703-Mock cells [4]) | cleavage of caspase-8, caspase-3 and PARP (H1703-FLIP(L) cells [3]; TRAIL alone) |
| --- | --- | --- | --- | --- | --- | --- | --- | --- | --- | --- |
| N#Cc1cc(-c2ccccc2)[nH]c1-c1nccc2ccccc12 [Molecule (3)] | most active | cleavage of caspase-8, caspase-3 and PARP | no cleavage | no cleavage observed | induce cleavage of caspase-8, caspase-3 and PARP | inhibit the interaction between FADD and c-FLIP |  |  |  |  |
| Cc1c2cnccc2c(C)c2c1c1ccccc1n2CCOC(=O)c1ccccc1 [Molecule (4)] | most active | cleavage of caspase-8, caspase-3 and PARP | no cleavage | no cleavage observed | induce cleavage of caspase-8, caspase-3 and PARP | inhibit the interaction between FADD and c-FLIP |  |  |  |  |
| Cc1cccc(Nc2sc(C(=O)c3cc4cc(Cl)ccc4o3)c(N)c2C#N)c1 [Molecule (9)] | most active | cleavage of caspase-8, caspase-3 and PARP | no cleavage | no cleavage observed | induce cleavage of caspase-8, caspase-3 and PARP | inhibit the interaction between FADD and c-FLIP |  |  |  |  |
| NS(=O)(=O)c1ccc(NC(=S)NC(=O)c2ccco2)cc1 [Molecule (6)] |  |  |  |  |  | no effect |  |  |  |  |
| Cc1cc(/N=N/c2c(O)nc3ccccc3c2O)ccc1/N=N/c1ccc(C(=O)N(C)C)cc1 [Molecule (1)] | most active | cleavage of caspase-8, caspase-3 and PARP | no cleavage | no cleavage observed | induce cleavage of caspase-8, caspase-3 and PARP | inhibit the interaction between FADD and c-FLIP |  |  |  |  |
| CC1=C(C)Cc2c(OC(=O)c3ccccc3)ccc(OC(=O)c3ccccc3)c2C1 [Molecule (7)] |  |  |  |  |  | inhibit the interaction between FADD and c-FLIP |  |  |  |  |
| TRAIL: death ligand TRAIL; KillerTRAIL (human recombinant BULK) purchased from Alexis Biochemicals (protein, UniProt P50591 39-281, looked up, extracellular domain KillerTRAIL recombinant, Alexis, death ligand TRAIL; KillerTRAIL (human recombinant BULK) purchased from Alexis Biochemicals) extracellular domain: TNELKQMQDKYSKSGIACFLKEDDSYWDPNDEESMNSPCWQVKWQLRQLVRKMILRTSEETISTVQEKQQNISPLVRERGPQRVAAHITGTRGRSNTLSSPNSKNEKALGRKINSWESSRSGHSFLSNLHLRNGELVIHEKGFYYIYSQTYFRFQEEIKENTKNDKQMVQYIYKYTSYPDPILLMKSARNSCWSKDAEYGLYSIYQGGIFELKENDRIFVSVTNEHLIDMDHEASFFGAFLVG |  |  |  |  |  |  | resistant to TRAIL; also recorded: no effect | cleavage of caspase-8, caspase-3 and PARP | more than 60% | no cleavage observed |
